Assay results taken from US20150259403A1, “Methods and Pharmaceutical Compositions for Treatment of Gastrointestinal Stromal Tumors” (INSERM (INSTITUT NATIONAL DE LA SANTÉ ET DE LA RECHERCHE …, priority 2012, published 2015).
“Also recorded” adds a separate entry of the source.

Test system: RBPMS2 transcript level in GIST882 cells
Assay: RBPMS2 transcript level by quantitative RT-PCR in GIST882 cells after inhibitor treatment
Format: cell-based, human
Description: For quantitative RT-PCR analysis, gene expression levels were measured using the LightCycler technology (Roche Diagnostics). […] Each sample was assayed in three independent experiments in triplicate. Expression levels were determined with the LightCycler analysis software (version 3.5) relative to standard curves. Data were represented as the mean level of gene expression relative to the expression of the reference gene HPRT (Roche Diagnostic). For cell culture experiments, RNA isolation was done with the RNeasy Mini kit (Qiagen) and quantitative RT-PCR was performed using Power Sybergreen (Applied biosystems). Data were represented as the mean level of gene expression relative to the expression of the reference genes ABL, TTC1 and UBC for the comparison of RBPMS2 expression between different cell lines and GAPDH and ACTIN for GIST882 cells, which were treated with either Imatinib or U0126.
The human GIST cell line GIST882 was maintained in DMEM (GIBCO) supplemented with 10% Fetal Bovine Serum (FBS), 2% Penicilline-Streptomycin (Lonza) and incubated with 1 μM of Imatinib (inhibitor of KIT activity) (LC Laboratory) or 5 μM of U0126 (MEK inhibitor) (Sigma-Aldrich), as previously described (Gromova et al., 2011).

| SMILES | RBPMS2 transcript (mRNA) level (1 μM Imatinib vs DMSO control, 6, 24 and 48 h) | RBPMS2 transcript (mRNA) level (5 μM U0126 vs DMSO control, 6, 24 and 48 h) |
| --- | --- | --- |
| Cc1ccc(NC(=O)c2ccc(CN3CCN(C)CC3)cc2)cc1Nc1nccc(-c2cccnc2)n1 [Imatinib] | No significant changes; also recorded: not influenced |  |
| N#CC(=C(/N)Sc1ccccc1N)/C(C#N)=C(\N)Sc1ccccc1N [U0126] |  | No significant changes; also recorded: not influenced |
